This note sets out measurements from patent US12396995B2, “Substituted 4-aminoisoindoline-1,3-dione compounds and second active agents for combined use” (Celgene Corporation, priority 2019, dated 2025).

The subject of assay [1] is cell lines from hematological malignancies. The assay can be described thus: Cell Titer Glo proliferation, Compound 1 in combination with second active agents. The assay is classed as cell-based. The following applies: very sensitive cell lines such as JJN-3, SU-DHL2 or SU-DHL10; combined with Compound 1. The method, then:
Cell Lines/Cells: Activated B-Cell (ABC) cell lines: TMD-8, SU-DHL-2, OCI-Ly10, RIVA, U2932; and Germinal Center B-cell (GCB) cell lines: SU-DHL10, Pfeiffer, WSU-DLCL2, SU-DHL4, DB; myeloma cell lines: H929, JJN3 and SK-MM1; acute myeloid leukemia cell line: HNT-34; acute lymphocytic leukemia cell line: Karpas-231; other lymphoma cell lines: Daudi, Karpas-299, HuT-102, L-428.
Alternatively, combination compound solutions were serially diluted from 5 μM starting concentration and serially diluted 6-fold for a 6-point dilution curve. […] Cells were added to each well and cultured for 3 days. […] For some other epigenetic agents (EPZ5676, C646, OICR-9429, ACY-241, GSK3484862, Compound C, UNC 0631, GSK3326595, LP99, A-196, CARM1 EZM2302) cells were cultured for 5 days due to their mechanism of action.
Plates were either made at a concentration of 10 μM or 1 μM diluted 3-fold for a 10-point dilution curve, with a final DMSO concentration of 0.2%. All cell line solutions were diluted to a concentration of 100,000 cells/mL and added to each well in a volume of 50 μL, with the exception of SU-DHL-6 solution, which was diluted to 25,000 cells/mL. At the end of the treatment period cells were lysed with Cell Titer Glo (CTG) reagents following manufacture recommendation. Luminescent signal was read using an Envision and data was normalized by DMSO for data analysis.
Data Analysis: The combination effect was analyzed by combining results from Highest Single Agent (HSA) and Bliss Independency methods. See, e.g., Foucquier J, Guedj M., Analysis of drug combinations: current methodological landscape. Pharmacol Res Perspect. 2015; 3(3):e00149. doi:10.1002/prp2.149.
Combined results of HSA and Bliss scores were used to define synergistic and additive effect of the combinations.

The subject of assay [2] is DB DLBCL xenograft tumors. Kind of assay: DB (DLBCL) xenograft model, Compound 1 alone and with tazemetostat. The assay is classed as in vivo, female SCID mice. The following applies: single agent tazemetostat 200 mg/kg oral BID, three weeks. The protocol:
Anti-tumor activity of Compound 1 alone and in combination with tazemetostat was studied in DB (DLBCL) xenograft model. Compound 1 (3, 10 or 30 mg/kg) was administered once daily for 5 consecutive days followed by 2 days off (5 D on/2 D off) and tazemetostat (200 mg/kg) was administered twice daily (BID).
(§1) Methods: Xenograft study was conducted with female SCID mice bearing DB DLBCL xenograft tumors. Female SCID mice were inoculated subcutaneously with DB cells in the flank region above the right hind leg. Following inoculation of animals, the tumors were allowed to grow to approximately 200 mm^3 prior to randomization. On day 33 following tumor cell inoculation, the mice bearing DB tumors ranging between 150 and 250 mm^3 were pooled together and randomized into various treatment groups. Compound 1 was formulated in 0.5% Methyl Cellulose, 0.25% Tween 80 and 50 mM Citrate pH 3 in water. Tazemetostat was formulated in CMC-Tween. Compound 1 (3, 10 or 30 mg/kg) was orally administered with three cycles of once daily for 5 consecutive days followed by 2 days off starting from day 33 after tumor cell inoculation. Tazemetostat (200 mg/kg) was orally administered twice day (BID) for three weeks. In combination group the animals received Compound 1 (3, 10 or 30 mg/kg, 5 D on/2 D off) and tazemetostat (200 mg/kg, BID) simultaneously for three weeks starting from day 33 after tumor cell inoculation. Tumors were measured twice a week using calipers and tumor volumes were calculated using the formula of W^2×L/2. Statistical analysis was performed using a one-way or 2-way analysis of variance (ANOVA). Synergy calculations were performed using fractional product method.

Assay [3] relates to WSU-DLCL2 DLBCL xenograft tumors. The assay can be described thus: WSU-DLCL2 (DLBCL) xenograft model, Compound 1 alone and with tazemetostat. The assay is classed as in vivo, female SCID mice. The following applies: single agent tazemetostat 200 mg/kg oral BID, three weeks. The method, then: Anti-tumor activity of Compound 1 alone and in combination with tazemetostat was studied in WSU-DLCL2 (DLBCL) xenograft model. Compound 1 (1 mg/kg) was administered once daily for 5 consecutive days followed by 2 days off (5 D on/2 D off) and tazemetostat (200 mg/kg) was administered twice daily (BID).
as §1, with “bearing WSU-DLCL2” for “bearing DB”, “with WSU-DLCL2” for “with DB”, “day 14” for “day 33”, “1 (1” for “1 (3, 10 or 30”, “Tazemetostat 200” for “Tazemetostat (200”, “1 (1 mg/kg/5” for “1 (3, 10 or 30 mg/kg, 5”

Each structure is given as a SMILES string.

For the molecule `Cc1[nH]c2ccccc2c1CCNCc1ccc(/C=C/C(=O)NO)cc1` [panobinostat, (2E)-N-hydroxy-3-[4-({[2-(2-methyl-1H-indol-3-yl)ethyl]amino}methyl)phenyl]acrylamide], in assay [1], the “effect on proliferation of combination with Compound 1 (HSA and Bliss scores)” value (“effect on proliferation of combination” below) is on record as “synergistic effects”.

`CCN(c1cc(-c2ccc(CN3CCOCC3)cc2)cc(C(=O)NCc2c(C)cc(C)[nH]c2=O)c1C)C1CCOCC1` [tazemetostat, N-[(1,2-dihydro-4,6-dimethyl-2-oxo-3-pyridinyl)methyl]-5-[ethyl(tetrahydro-2H-pyran-4-yl)amino]-4-methyl-4′-(4-morpholinylmethyl)-[1,1′-biphenyl]-3-carboxamide, reference compound]: the “inhibition of tumor growth (TVR)” value in assay [2] was 64.5%; in assay [2] (listed as Tazemetostat), −45.9%. The “inhibition of tumor growth” value in assay [3] is reported as −50.5%. Take `CC[C@]1(O)C[C@H]2CN(CCc3c([nH]c4ccccc34)[C@@](C(=O)OC)(c3cc4c(cc3OC)N(C=O)[C@H]3[C@@](O)(C(=O)OC)[C@H](OC(C)=O)[C@]5(CC)C=CCN6CC[C@]43[C@@H]65)C2)C1` [vincristine]: the “effect on proliferation of combination” value in assay [1] is given as “synergistic effects”.

As to `CO[C@H]1C[C@@H]2CC[C@@H](C)[C@@](O)(O2)C(=O)C(=O)N2CCCC[C@H]2C(=O)O[C@H]([C@H](C)C[C@@H]2CC[C@@H](OCCO)[C@H](OC)C2)CC(=O)[C@H](C)/C=C(\C)[C@@H](O)[C@@H](OC)C(=O)[C@H](C)C[C@H](C)/C=C/C=C/C=C/1C` [everolimus, 40-O-(2-hydroxyethyl)-rapamycin], the “effect on proliferation of combination” value in assay [1] is “synergistic effects”.

With `Cc1cnc(Nc2ccc(OCCN3CCCC3)cc2)nc1Nc1cccc(S(=O)(=O)NC(C)(C)C)c1` [fedratinib, N-tert-butyl-3-[(5-methyl-2-{4-[2-(pyrrolidin-1-yl)ethoxy]anilino}pyrimidin-4-yl)amino]benzenesulfonamide], in assay [1], the “effect on proliferation of combination” value was “synergistic effects”. Still for that read-out and setting: the result for `Cc1sc2c(c1C)C(c1ccc(Cl)cc1)=N[C@@H](CC(=O)Nc1ccc(O)cc1)c1nnc(C)n1-2` [birabresib, (S)-2-(4-(4-chlorophenyl)-2,3,9-trimethyl-6H-thieno[3,2-f][1,2,4]triazolo[4,3-a][1,4]diazepin-6-yl)-N-(4-hydroxyphenyl)acetamide] reads “synergistic effects”.

As to `COc1cc(Nc2ncc3c(n2)-c2ccc(Cl)cc2C(c2c(F)cccc2OC)=NC3)ccc1C(=O)O` [alisertib, 4-((9-chloro-7-(2-fluoro-6-methoxyphenyl)-5H-benzo[c]pyrimido[4,5-e]azepin-2-yl)amino)-2-methoxybenzoic acid], the “effect on proliferation of combination” value in assay [1] is recorded as “synergistic effects”.
